# Article PMC10807611 (Cancer chemotherapy and pharmacology, 2023)
# Assays:
# [1] = Plasma pharmacokinetics on cycle 1 day 1; type: in vivo; details: human
# [2] = test system: patients with relapsed/refractory AML or MDS; details: days 1–5 and 8–12 in combination with bortezomib; cited from earlier work
# [3] = test system: patients in the registration trial; details: package insert; cited from earlier work
smiles,measurement,setting,value
"O=C(/C=C/c1cccc(S(=O)(=O)Nc2ccccc2)c1)NO [Belinostat, belinostat]",clearance,"[1]; plasma, iv, 800 mg/m2",643 mL/min
same,Tmax,"[1]; plasma, iv, 1000 mg/m2",0.4 h
same,clearance,"[1]; plasma, iv, 1000 mg/m2",657 mL/min
same,Maximum tolerated dose (MTD),[2],1000 mg/m^2
same,"Patients with QTc prolongation, all grades",[3],11%
"C=CCn1c(=O)c2cnc(Nc3ccc(N4CCN(C)CC4)cc3)nc2n1-c1cccc(C(C)(C)O)n1 [Adavosertib, adavosertib]",Cmax,"[1]; in vivo, Cmax concentrations",~500 nM
same,V/F,"[1]; in vivo, po",784.6 ± 204.3 L
same,Cl/F,"[1]; in vivo, po, 225 mg",57.0 ± 13.6 L/h
same,Tmax,"[1]; in vivo, po, 225 mg",3 h
same,AUC(0-inf),"[1]; in vivo, po, 225 mg, AUCINF",7.41 µM·h
same,half-life,"[1]; in vivo, po, 225 mg, T1/2",9.7 ± 1.93 h
"O=C(/C=C/c1cccc(S(=O)(=O)Nc2ccccc2)c1)NO[C@@H]1O[C@H](C(=O)O)[C@@H](O)[C@H](O)[C@H]1O [Belinostat glucuronide, belinostat glucuronide]",AUCINF,"[1]; in vivo, iv, 800 mg/m2",396.0 ± 151.1 (6) μM·h
same,T1/2,"[1]; in vivo, iv, 800 mg/m2",3.51 ± 0.95 (6) h
same,AUCINF,"[1]; in vivo, iv, 1000 mg/m2",668.6 ± 452.2 (4) μM·h
same,T1/2,"[1]; in vivo, iv, 1000 mg/m2",4.41 ± 1.30 (4) h
